“And” between values parts separate entries of the source, which are not always exact repeats. Identical values can stand only once. One block for each compound: values may come before it.
Legend:
[1] = test system: AR 1.0 cells; assay: Drug accumulation assay (tritiated daunorubicin) in MDR resistant AR 1.0 cells; format: cell-based; conditions: Mus musculus, DNR 2 μM; for IC50: 37° C., 1 hr; for Emax: 1 h, 100% = accumulation with 100 μM Verapamil, read-out: MAX accumulation (% 100 μm VRP)
Description: The EMT6 mouse mammary carcinoma cell line and the MDR resistant subline AR 1.0 were cultured in RPMI 1640 medium containing 10% foetal calf serum and 2 mM glutamine at 37° C. in 5% CO2 . Cells were passaged between 1 in 200 and 1 in 2000 in the case of the parental cell line and between 1 in 20 and 1 in 200 in the case of the MDR resistant subline, after trypsinisation (0.25% trypsin, 0.2 gl^-1, EDTA).
AR 1.0 cells were seeded into 96 well opaque culture plates (Canberra Packard). The assay medium contained a mixture of tritiated Daunorubicin (DNR), a cytotoxic agent, and unlabelled DNR (0.25μ Ci/ml; 2 μM). Compounds of formula A were serially diluted in assay medium over a range of concentrations from 100 nM to 100 μM. The cells were incubated at 37° C. for 1 hr before washing and counting of cell associated radioactivity. Each assay included a titration of the known resistance modifying agent Verapamil as positive control. Results were expressed as % maximum accumulation where 100% accumulation is that observed in the presence of 100 μM Verapamil.

[2] = test system: AR 1.0 cells; assay: Proliferation assay with and without fixed concentration of doxorubicin (sulphorhodamine B); format: cell-based, mouse; conditions: four days
Description: Compounds of formula A were examined for their ability to potentiate the toxicity of doxorubicin in AR 1.0 cells.

[3] = test system: AR 1.0 cells; assay: Potentiation of doxorubicin toxicity (potentiation index) in AR 1.0 cells; format: cell-based, mouse; conditions: four days
[4] = test system: MDR cells; conditions: in vitro and in vivo; Cancer Res., 41, 1967-1972 (1981); cited from earlier work
[5] = Mus musculus, 96 h, compound alone, read-out: COMPOUND TOXICITY (IC50)
[6] = cytotoxic agent 1.00 μg/ml, 5760 min, read-out: TOXICITY WITH CYTOTOXIC AGENT (IC 50)
[7] = cytotoxic agent 0.50 μg/ml, 5760 min, read-out: TOXICITY WITH CYTOTOXIC AGENT (IC 50)

IC50 [1]: 15 µM
SMILES: Cn1c(=O)/c(=C/c2ccccc2)n(Cc2ccccc2)c(=O)/c1=C/c1ccccc1 [Compound 1779, (3Z,6Z)-1-Benzyl-3,6-dibenzylidene-4-methyl-2,5-piperazinedione]
IC50 [2, 5]: 15 µM
IC50 [2, 6]: 0.8 µM
Potentiation Index ([3]; Conc Comp 5 μM): 40

IC50 [1]: 10 µM
SMILES: C=CCn1c(=O)/c(=C/c2ccccc2)n(C)c(=O)/c1=C/c1ccccc1 [Compound 1825, (3Z,6Z)-1-Allyl-3,6-dibenzylidene-4-methyl-2,5-piperazinedione]
IC50 [2, 5]: 20 µM
IC50 [2, 7]: 1.5 µM
Potentiation Index ([3]; Conc Comp 3 μM): 15

IC50 [1]: 9 µM
SMILES: Cn1c(=O)/c(=C/c2ccccc2)nc(OCC2OCCO2)/c1=C/c1ccccc1 [Compound 1822, (3Z,6Z)-3,6-Dibenzylidene-1-methyl-2-oxo-1,2,3,6-tetrahydro-5-pyrazinyloxyacetaldehyde ethylene acetal]
IC50 [2, 5]: 5 µM

IC50 [1]: 3 µM
SMILES: Cn1c(=O)/c(=C/c2ccccc2)nc(OCCCN2C(=O)c3ccccc3C2=O)/c1=C/c1ccccc1 [Compound 1824, (3Z,6Z)-3,6-Dibenzylidene-1-methyl-5-(3-phthalimidopropoxy)-3,6-dihydro-2-pyrazinone]
IC50 [2, 5]: 7 µM
Potentiation Index ([3]; Conc Comp 3 μM): 60 and 80

IC50 [1]: 9 µM
SMILES: Cn1c(=O)/c(=C/c2ccccc2)n(CC2OCCO2)c(=O)/c1=C/c1ccccc1 [Compound 1823, (3Z,6Z)-3,6-Dibenzylidene-4-methyl-2,5-dioxo-1-piperazinylacetaldehydeethylene acetal]
IC50 [2, 5]: 30 µM
IC50 [2, 7]: 0.7 µM
Potentiation Index ([3]; Conc Comp 3 μM): 20

IC50 [1]: 12 µM
SMILES: COc1ccc(/C=c2/c(=O)n(CC3CC3)/c(=C\c3ccccc3)c(=O)n2C)cc1 [Compound 1833]
IC50 [2, 5]: 9 µM
IC50 [2, 7]: 1 µM
Potentiation Index ([3]; Conc Comp 3 μM): 20

Second part, the compound before the results:

SMILES: CCN(CC)C(=O)Cn1c(=O)/c(=C/c2ccc(OC)cc2)[nH]c(=O)/c1=C/c1ccccc1 [Compound 1527, N,N-Diethyl-(3Z,6Z)-6-benzylidene-3-(4-methoxybenzylidene)-2,5-dioxo-1-piperazinylacetamide]
Emax [1]: 73.9%
IC50 [1]: 40 µM
IC50 [2, 5]: 40 µM
IC50 [2, 6]: 1.5 µM

SMILES: COc1ccc(/C=c2/c(=O)[nH]/c(=C\c3ccccc3)c(=O)n2CC(=O)N2CCCC2)cc1 [Compound 1521, N,N-Tetramethylene-(3Z,6Z)-3-benzylidene-6-(4-methoxybenzylidene)-2,5-dioxo-1-piperazinylacetamide]
Emax [1]: 65.2%
IC50 [1]: 30 µM
IC50 [2, 5]: 70 µM

SMILES: COc1ccc(/C=c2\[nH]c(=O)/c(=C/c3ccccc3)n(CC3CC3)c2=O)cc1 [Compound 1500]
Emax [1]: 91.3%
IC50 [1]: 15 µM
IC50 [2, 5]: 20 µM
Potentiation Index ([3]; Conc Comp 3 μM): 10

SMILES: COc1ccc(/C=c2/c(=O)[nH]/c(=C\c3ccccc3)c(=O)n2CC2CC2)cc1 [Compound 1454, (3Z,6Z)-3-Benzylidene-1-cyclopropylmethyl-6-(4-methoxybenzylidene)-2,5-piperazinedione]
IC50 [1]: 10 µM
IC50 [2, 5]: 5 µM
Potentiation Index ([3]; Conc Comp 5 μM): 10

SMILES: CC(=O)OCCn1c(=O)/c(=C/c2ccccc2)n(C)c(=O)/c1=C/c1ccccc1 [Compound 1817, (3Z,6Z)-1-(2-Acetoxyethyl)-3,6-dibenzylidene-4-methyl-2,5-piperazinedione]
IC50 [1]: 20 µM
IC50 [2, 5]: 20 µM
IC50 [2, 7]: 1.5 µM

SMILES: CC(=O)OCCOc1n/c(=C\c2ccccc2)c(=O)n(C)/c1=C\c1ccccc1 [Compound 1818, (3Z,6Z)-5-(2-Acetoxyethoxy)-3,6-dibenzylidene-1-methyl-3,6-dihydro-2-pyrazinone]
IC50 [1]: 7 µM
IC50 [2, 5]: 1.5 µM
IC50 [2, 7]: 0.8 µM

SMILES: COc1ccc(CCN(C)CCCC(C#N)(c2ccc(OC)c(OC)c2)C(C)C)cc1OC (centres unmarked) [Verapamil]
sensitisation of MDR cells to Vinca alkaloids [4]: sensitise MDR cells to Vinca alkaloids in vitro and in vivo

SMILES: COC(=O)Cn1c(=O)/c(=C/c2ccccc2)[nH]c(=O)/c1=C/c1ccc(OC)cc1 [Compound 1486, Methyl (3Z,6Z)-3-benzylidene-6-(4-methoxybenzylidene)-2,5-dioxo-1-piperazinylacetate]
IC50 [1]: 50 µM
IC50 [2, 5]: 10 µM

Reference: patent US5852018A, “Pharmaceutical piperazine compounds” (Xenova Limited, priority 1994, dated 1998)
